Common to all, as to assay: relative viability (nuclei count vs DMSO), 5 days (fraction); higher = more cells survive
Compound in assay [1]: C[As](C)SC[C@H](NC(=O)CC[C@H](N)C(=O)O)C(=O)NCC(=O)O [Darinaparsin] + C[C@]1(O)C[C@@H](c2nc(-c3ccc4ccc(-c5ccccc5)nc4c3)c3c(N)nccn32)C1 [Linsitinib] (partner 1 µM)
Put shortly: (§1)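 Lung cancer cell lines were pin-tool dosed in 1536-well plates on the day after seeding, with either a lone drug or a fixed anchor-drug dose plus five library-drug doses (not always all listed) in √10 steps. Nuclei were counted on 4× images after 5 days. Relative viability is the ratio of treated-well to vehicle-well nuclei counts, with each value a median of duplicate plates.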

Compound in the assay “AZ628 + Linsitinib”: CC1=C(C=C(C=C1)NC(=O)C2=CC(=CC=C2)C(C)(C)C#N)NC3=CC4=C(C=C3)N=CN(C4=O)C [AZ628] + C[C@]1(O)C[C@@H](c2nc(-c3ccc4ccc(-c5ccccc5)nc4c3)c3c(N)nccn32)C1 [Linsitinib] (partner 1 µM)
Summed up:
as §1

Compound in the assay “AZ628 + OSI-027”: CC1=C(C=C(C=C1)NC(=O)C2=CC(=CC=C2)C(C)(C)C#N)NC3=CC4=C(C=C3)N=CN(C4=O)C [AZ628] + COc1cccc2cc(-c3nc([C@H]4CC[C@H](C(=O)O)CC4)n4ncnc(N)c34)[nH]c12 [OSI-027] (partner 0.5 µM)
Summed up: as §1

Compound in the assay “AZ628 + Crizotinib”: CC1=C(C=C(C=C1)NC(=O)C2=CC(=CC=C2)C(C)(C)C#N)NC3=CC4=C(C=C3)N=CN(C4=O)C [AZ628] + C[C@@H](Oc1cc(-c2cnn(C3CCNCC3)c2)cnc1N)c1c(Cl)ccc(F)c1Cl [Crizotinib] (partner 1 µM)
Summed up: as §1

Turning to LCLC-97TM1, the relative viability in assay [1] (first compound 0.08 µM) is 0.162; in assay [1] (first compound 0.8 µM), 0.164; in assay [1] (first compound 2.53 µM), 0.173; in assay [1] (first compound 8 µM) it was 0.178; with AZ628 + Linsitinib (first compound 0.08 µM), 0.212; with AZ628 + Linsitinib (first compound 0.253 µM), 0.24. The relative viability was found to be 0.179 in the assay with AZ628 + Linsitinib (first compound 0.8 µM); 0.202 with AZ628 + Linsitinib (first compound 2.53 µM); 0.136 with AZ628 + Linsitinib (first compound 8 µM); 0.577 in the assay with AZ628 + OSI-027 (first compound 0.08 µM); 0.328 with AZ628 + OSI-027 (first compound 0.253 µM); 0.315 with AZ628 + OSI-027 (first compound 0.8 µM). The relative viability stood at 0.327 in the assay with AZ628 + OSI-027 (first compound 2.53 µM); 0.198 in the assay with AZ628 + OSI-027 (first compound 8 µM); 0.741 with AZ628 + Crizotinib (first compound 0.08 µM); 0.501 with AZ628 + Crizotinib (first compound 0.253 µM); 0.352 in the assay with AZ628 + Crizotinib (first compound 0.8 µM); 0.413 with AZ628 + Crizotinib (first compound 2.53 µM). For the same cell line, the relative viability with AZ628 + Crizotinib (first compound 8 µM) is 0.205.

Values taken from the supplement of paper PMC10307832.
